Like-named read-outs stand apart in the source and are kept apart here.
Legend:
p21 = assay: Western blot, apoptosis proteins in MCF-7 cells; assay type: cell-based; settings: 2 μM, 24h
Experimental: (§1) FIG. 3 represents effect of compound 7d and 7h on p21 and caspase-9. MCF-7 cells were treated with 2 μM concentration of compounds 7d and 7h for 24h. The cell lysates were collected and probed with anti-bodies against p21 and caspase-9. beta-actin was used as loading control. Con: Control (untreated).
(§2) Activation of tumor suppressor gene p21 was the important regulator of apoptotic pathway caused by various stimuli. In many instances the apoptotic cell death is mediated by caspases, thus the possible involvement of p21 and caspase protein and its role in apoptosis has been investigated. MCF-7 cells were treated with 7d, 7h (the effective compounds of cell cycle arrest) 21a, 21d and CA-4 at 2 μM concentration.

caspase-9 = assay: Western blot, apoptosis proteins in MCF-7 cells; assay type: cell-based; settings: 2 μM, 24h
Experimental: as §1, §2

K562 (Leukemia) cells = assay: Cell cycle distribution by flow cytometry; assay type: cell-based
Experimental: (§3) In order to investigate the mechanism underlying the anti-proliferative effect of the compounds the cell cycle distribution was analyzed in K562 (Leukemia) and MCF-7 (Breast carcinoma) cell lines by flow cytometry. Compounds CA-4, 21a, 21d, 4c, 6d, 6e, 6f, 7d, 7h and 7j have shown 1.72%, 14%, 12%, 14%, 12%, 14%, 14%, 16%, 16% &12% in K562 cells and 49.63%, 21%, 20%, 18%, 21%, 21%, 21%, 24%, 23% and 23% in MCF-7 cell line respectively. […] Thus compound 7d was considered for further studies (FIG. 1).

[1] = test system: MCF-7 (Breast carcinoma) cells; assay: Cell cycle distribution by flow cytometry (FACS); assay type: cell-based; settings: MCF-7 cells, 2 μM, 24h
Experimental: FIG. 1 represents FACS analysis of cell cycle distribution of MCF-7 cells after treatment with compounds CA-4, 21a, 21d, 4c, 6d, 6e, 6f, 7d, 7h and 7j at 2 μM concentration for 24h and control cells are the cells treated with DMSO (0.25%).
as §3

OVCAR-4 = assay: SRB anticancer assay, ovarian; assay type: cell-based, human; settings: OVCAR-4, 48 h
RXF 393 = assay: SRB anticancer assay, renal; assay type: cell-based, human; settings: RXF 393, 48 h
NCI-H226 = assay: SRB anticancer assay, non-small lung; assay type: cell-based, human; settings: NCI-H226, 48 h
UO-31 = assay: SRB anticancer assay, renal; assay type: cell-based, human; settings: UO-31, 48 h
TK-10 = assay: SRB anticancer assay, renal; assay type: cell-based, human; settings: TK-10, 48 h
SK-MEL-5 = assay: SRB anticancer assay, melanoma; assay type: cell-based, human; settings: SK-MEL-5, 48 h
A498 = assay: SRB anticancer assay, renal; assay type: cell-based, human; settings: A498, 48 h
SNB-75 = assay: SRB anticancer assay, CNS; assay type: cell-based, human; settings: SNB-75, 48 h
MOLT-4 = assay: SRB anticancer assay, leukemia; assay type: cell-based, human; settings: MOLT-4, 48 h
MDA-MB-435 = assay: SRB anticancer assay, melanoma; assay type: cell-based, human; settings: MDA-MB-435, 48 h
NCI-H460 = assay: SRB anticancer assay, non-small lung; assay type: cell-based, human; settings: NCI-H460, 48 h
NCI-H322M = assay: SRB anticancer assay, non-small lung; assay type: cell-based, human; settings: 48 h
NCI-H23 = assay: SRB anticancer assay, non-small lung; assay type: cell-based, human; settings: NCI-H23, 48 h
HCT-116 = assay: SRB anticancer assay, colon; assay type: cell-based, human; settings: HCT-116, 48 h
UACC-62 = assay: SRB anticancer assay, melanoma; assay type: cell-based, human; settings: UACC-62, 48 h
BT-549 = assay: SRB anticancer assay, breast; assay type: cell-based, human; settings: BT-549, 48 h
NCI-H522 = assay: SRB anticancer assay, non-small lung; assay type: cell-based, human; settings: NCI-H522, 48 h
MCF7 = assay: SRB anticancer assay, breast; assay type: cell-based, human; settings: MCF7, 48 h
U251 = assay: SRB anticancer assay, CNS; assay type: cell-based, human; settings: U251, 48 h
SF-295 = assay: SRB anticancer assay, CNS; assay type: cell-based, human; settings: SF-295, 48 h
SR = assay: SRB anticancer assay, leukemia; assay type: cell-based, human; settings: 48 h
K-562 = assay: SRB anticancer assay, leukemia; assay type: cell-based, human; settings: K-562, 48 h
DU-145 = assay: SRB anticancer assay, prostate; assay type: cell-based, human; settings: DU-145, 48 h
HCC-2998 = assay: SRB anticancer assay, colon; assay type: cell-based, human; settings: HCC-2998, 48 h
CCRF-CEM = assay: SRB anticancer assay, leukemia; assay type: cell-based, human; settings: 48 h
MDA-MB-231/ATCC = assay: SRB anticancer assay, breast; assay type: cell-based, human; settings: 48 h, read-out: GI50
EKVX = assay: SRB anticancer assay, non-small lung; assay type: cell-based, human; settings: 48 h
HCT-15 = assay: SRB anticancer assay, colon; assay type: cell-based, human; settings: HCT-15, 48 h
PC-3 = assay: SRB anticancer assay, prostate; assay type: cell-based, human; settings: PC-3, 48 h
ACHN = assay: SRB anticancer assay, renal; assay type: cell-based, human; settings: 48 h
IGROV1 = assay: SRB anticancer assay, ovarian; assay type: cell-based, human; settings: IGROV1, 48 h
HT29 = assay: SRB anticancer assay, colon; assay type: cell-based, human; settings: HT29, 48 h
LOX IMVI = assay: SRB anticancer assay, melanoma; assay type: cell-based, human; settings: 48 h
COLO 205 = assay: SRB anticancer assay, colon; assay type: cell-based, human; settings: COLO 205, 48 h
M14 = assay: SRB anticancer assay, melanoma; assay type: cell-based, human; settings: M14, 48 h
SN12C = assay: SRB anticancer assay, renal; assay type: cell-based, human; settings: 48 h
A549/ATCC = assay: SRB anticancer assay, non-small lung; assay type: cell-based, human; settings: 48 h
UACC-257 = assay: SRB anticancer assay, melanoma; assay type: cell-based, human; settings: UACC-257, 48 h
HL-60 (TB) = assay: SRB anticancer assay, leukemia; assay type: cell-based, human; settings: HL-60 (TB), 48 h; read-out: GI50
HS 578T = assay: SRB anticancer assay, breast; assay type: cell-based, human; settings: 48 h
SK-MEL-28 = assay: SRB anticancer assay, melanoma; assay type: cell-based, human; settings: SK-MEL-28, 48 h
SW-620 = assay: SRB anticancer assay, colon; assay type: cell-based, human; settings: SW-620, 48 h
HOP-62 = assay: SRB anticancer assay, non-small lung; assay type: cell-based, human; settings: HOP-62, 48 h
OVCAR-5 = assay: SRB anticancer assay, ovarian; assay type: cell-based, human; settings: OVCAR-5, 48 h
786-0 = assay: SRB anticancer assay, renal; assay type: cell-based, human; settings: 786-0, 48 h
MALME-3M = assay: SRB anticancer assay, melanoma; assay type: cell-based, human; settings: MALME-3M, 48 h
OVCAR-3 = assay: SRB anticancer assay, ovarian; assay type: cell-based, human; settings: OVCAR-3, 48 h
SNB-19 = assay: SRB anticancer assay, CNS; assay type: cell-based, human; settings: SNB-19, 48 h
KM12 = assay: SRB anticancer assay, colon; assay type: cell-based, human; settings: KM12, 48 h
SK-OV-3 = assay: SRB anticancer assay, ovarian; assay type: cell-based, human; settings: SK-OV-3, 48 h
SF-268 = assay: SRB anticancer assay, CNS; assay type: cell-based, human; settings: SF-268, 48 h
CAKI-1 = assay: SRB anticancer assay, renal; assay type: cell-based, human; settings: CAKI-1, 48 h
[2] = test system: microtubule network of MCF-7 cells; assay: Effect on microtubule network; assay type: cell-based; settings: 2 μM
Experimental: FIG. 2 represents effect of compound 7d, the effective compound on the microtubule network of MCF-7 cells untreated cells (Con), nocodazole (Noc) and 7d at 2 μM concentration. Microtubules and unassembled tubulin are shown in green and DNA was stained with nuclear dye DAPI (4,6-diamidino-2-phenylindole) is shown in blue colour.
Inhibition of tubulin is associated with G2/M cell cycle arrest by interrupting chromosome segregation and affecting mitotic spindle formation. […] It was considered of interest to understand the mechanism of anti-cancer activity of compound 7d with regard to interaction with microtubule system. MCF-7 breast cancer cells were treated with Nocodazole (Noc), 7d compounds at 2 μM concentration.

[3] = MDA-MB-231/ATCC (row head MDA-MB-)

## COc1ccc(/C=C\c2cc(OC)c(OC)c(OC)c2)cc1O [CA-4, Combretastatin A-4, reference compound]
p21
  p21 protein (Western blot): increase
caspase-9
  caspase-9 protein (Western blot): increase
K562 (Leukemia) cells
  cells in G2/M phase: 1.72%
[1]
  cells in G2/M phase: 49.63%

## Cc1cc(-c2nc3ccccc3s2)ccc1N [Compound 3a, reference compound]
OVCAR-4
  GI50: 0.54 µM
RXF 393
  GI50: 70.6 µM
NCI-H226
  GI50: 0.35 µM
UO-31
  GI50: 6.45 µM
TK-10
  GI50: 0.18 µM
SK-MEL-5
  GI50: 21.9 µM
A498
  GI50: 42.7 µM
SNB-75
  GI50: 33.1 µM
MOLT-4
  GI50: 19.5 µM
MDA-MB-435
  GI50: 79.5 µM
NCI-H460
  GI50: 53.7 µM
NCI-H322M
  GI50: 43.7 µM
NCI-H23
  GI50: 58.9 µM
HCT-116
  GI50: 43.7 µM
UACC-62
  GI50: 70.8 µM
BT-549
  GI50: 0.1 µM
NCI-H522
  GI50: 32.4 µM
MCF7
  GI50: 0.03 µM
U251
  GI50: 66.1 µM
SF-295
  GI50: 64.6 µM
SR
  GI50: 17.4 µM
K-562
  GI50: 6.02 µM
DU-145
  GI50: 61.7 µM
HCC-2998
  GI50: 0.25 µM
CCRF-CEM
  GI50: 6.45 µM
MDA-MB-231/ATCC; [3]
  GI50: 66.1 µM
EKVX
  GI50: 34.7 µM
HCT-15
  GI50: 47.9 µM
PC-3
  GI50: 31.6 µM
ACHN
  GI50: 51.3 µM
IGROV1
  GI50: 0.042 µM
HT29
  GI50: 29.5 µM
LOX IMVI
  GI50: 37.2 µM
COLO 205
  GI50: 51.3 µM
M14
  GI50: 57.6 µM
SN12C
  GI50: 50.1 µM
A549/ATCC
  GI50: 28.8 µM
UACC-257
  GI50: 74.2 µM
HL-60 (TB)
  GI50: 8.71 µM
HS 578T
  GI50: 66.1 µM

## Cc1cc(-c2nc3ccc(O)cc3s2)ccc1N [Compound 3b, reference compound]
OVCAR-4
  GI50: 37.2 µM
SK-MEL-28
  GI50: 64.6 µM
RXF 393
  GI50: 30.2 µM
NCI-H226
  GI50: 60.3 µM
SW-620
  GI50: 66.1 µM
HOP-62
  GI50: 30.9 µM
OVCAR-5
  GI50: 83.2 µM
UO-31
  GI50: 21.4 µM
TK-10
  GI50: 77.6 µM
786-0
  GI50: 29.5 µM
SK-MEL-5
  GI50: 52.5 µM
A498
  GI50: 41.7 µM
SNB-75
  GI50: 15.8 µM
MALME-3M
  GI50: 83.2 µM
MOLT-4
  GI50: 26.9 µM
OVCAR-3
  GI50: 38.9 µM
MDA-MB-435
  GI50: 89.1 µM
NCI-H460
  GI50: 38.9 µM
NCI-H322M
  GI50: 39.8 µM
SNB-19
  GI50: 45.7 µM
NCI-H23
  GI50: 12.6 µM
HCT-116
  GI50: 43.7 µM
KM12
  GI50: 57.6 µM
UACC-62
  GI50: 57.6 µM
BT-549
  GI50: 22.4 µM
NCI-H522
  GI50: 30.2 µM
MCF7
  GI50: 56.2 µM
U251
  GI50: 31.6 µM
SF-295
  GI50: 31.6 µM
SR
  GI50: 21.9 µM
K-562
  GI50: 36.3 µM
DU-145
  GI50: 33.9 µM
CCRF-CEM
  GI50: 0.79 µM
MDA-MB-231/ATCC; [3]
  GI50: 44.7 µM
MDA-MB-231/ATCC; listed as head printed 231/ATCC (second line of MDA-MB-231/ATCC)
  GI50: 95.5 µM
EKVX
  GI50: 4.07 µM
PC-3
  GI50: 50.1 µM
ACHN
  GI50: 53.7 µM
IGROV1
  GI50: 47.9 µM
HT29
  GI50: 37.2 µM
M14
  GI50: 33.1 µM
SN12C
  GI50: 38.9 µM
SK-OV-3
  GI50: 37.2 µM
SF-268
  GI50: 35.5 µM
A549/ATCC
  GI50: 34.7 µM
CAKI-1
  GI50: 34.7 µM
HS 578T
  GI50: 14.1 µM

## Nc1ccc(-c2nc3ccc(F)cc3s2)cc1 [Compound 21a, 4-(6-fluorobenzo[d]thiazol-2-yl)benzenamine]
p21
  p21 protein (Western blot): increase
caspase-9
  caspase-9 protein (Western blot): increase
K562 (Leukemia) cells
  cells in G2/M phase: 14%
[1]
  cells in G2/M phase: 21%

## COc1cc2nc(-c3ccc(N)cc3)sc2c(OC)c1OC [Compound 21d, 4-(5,6,7-trimethoxybenzo[d]thiazol-2-yl)benzenamine]
p21
  p21 protein (Western blot): increase
caspase-9
  caspase-9 protein (Western blot): increase
K562 (Leukemia) cells
  cells in G2/M phase: 12%
[1]
  cells in G2/M phase: 20%

## COC(=O)Nc1nc2ccc(C(=O)c3cccs3)cc2[nH]1 [Nocodazole, reference compound]
[2]
  microtubulin organization: disrupted microtubulin organization
